Measured values as given in US12516046B2, “2-oxo-oxazolidine-5-carboxamides as NAV1.8 inhibitors” (Merck Sharp & Dohme LLC, priority 2020, dated 2026).

Each compound was assayed against human Nav1.8 (Homo sapiens (Human), UniProt Q9Y5Y9) (assay: Nav1.8 Qube® Assay (automated 384-well patch-clamp)). Conditions: human Nav1.8 channels stably expressed in HEK 293 cells.
Assay type: cell-based
From the text: Qube® Assay Experimental Procedure

human Nav1.8, sequence (Q9Y5Y9 whole entry): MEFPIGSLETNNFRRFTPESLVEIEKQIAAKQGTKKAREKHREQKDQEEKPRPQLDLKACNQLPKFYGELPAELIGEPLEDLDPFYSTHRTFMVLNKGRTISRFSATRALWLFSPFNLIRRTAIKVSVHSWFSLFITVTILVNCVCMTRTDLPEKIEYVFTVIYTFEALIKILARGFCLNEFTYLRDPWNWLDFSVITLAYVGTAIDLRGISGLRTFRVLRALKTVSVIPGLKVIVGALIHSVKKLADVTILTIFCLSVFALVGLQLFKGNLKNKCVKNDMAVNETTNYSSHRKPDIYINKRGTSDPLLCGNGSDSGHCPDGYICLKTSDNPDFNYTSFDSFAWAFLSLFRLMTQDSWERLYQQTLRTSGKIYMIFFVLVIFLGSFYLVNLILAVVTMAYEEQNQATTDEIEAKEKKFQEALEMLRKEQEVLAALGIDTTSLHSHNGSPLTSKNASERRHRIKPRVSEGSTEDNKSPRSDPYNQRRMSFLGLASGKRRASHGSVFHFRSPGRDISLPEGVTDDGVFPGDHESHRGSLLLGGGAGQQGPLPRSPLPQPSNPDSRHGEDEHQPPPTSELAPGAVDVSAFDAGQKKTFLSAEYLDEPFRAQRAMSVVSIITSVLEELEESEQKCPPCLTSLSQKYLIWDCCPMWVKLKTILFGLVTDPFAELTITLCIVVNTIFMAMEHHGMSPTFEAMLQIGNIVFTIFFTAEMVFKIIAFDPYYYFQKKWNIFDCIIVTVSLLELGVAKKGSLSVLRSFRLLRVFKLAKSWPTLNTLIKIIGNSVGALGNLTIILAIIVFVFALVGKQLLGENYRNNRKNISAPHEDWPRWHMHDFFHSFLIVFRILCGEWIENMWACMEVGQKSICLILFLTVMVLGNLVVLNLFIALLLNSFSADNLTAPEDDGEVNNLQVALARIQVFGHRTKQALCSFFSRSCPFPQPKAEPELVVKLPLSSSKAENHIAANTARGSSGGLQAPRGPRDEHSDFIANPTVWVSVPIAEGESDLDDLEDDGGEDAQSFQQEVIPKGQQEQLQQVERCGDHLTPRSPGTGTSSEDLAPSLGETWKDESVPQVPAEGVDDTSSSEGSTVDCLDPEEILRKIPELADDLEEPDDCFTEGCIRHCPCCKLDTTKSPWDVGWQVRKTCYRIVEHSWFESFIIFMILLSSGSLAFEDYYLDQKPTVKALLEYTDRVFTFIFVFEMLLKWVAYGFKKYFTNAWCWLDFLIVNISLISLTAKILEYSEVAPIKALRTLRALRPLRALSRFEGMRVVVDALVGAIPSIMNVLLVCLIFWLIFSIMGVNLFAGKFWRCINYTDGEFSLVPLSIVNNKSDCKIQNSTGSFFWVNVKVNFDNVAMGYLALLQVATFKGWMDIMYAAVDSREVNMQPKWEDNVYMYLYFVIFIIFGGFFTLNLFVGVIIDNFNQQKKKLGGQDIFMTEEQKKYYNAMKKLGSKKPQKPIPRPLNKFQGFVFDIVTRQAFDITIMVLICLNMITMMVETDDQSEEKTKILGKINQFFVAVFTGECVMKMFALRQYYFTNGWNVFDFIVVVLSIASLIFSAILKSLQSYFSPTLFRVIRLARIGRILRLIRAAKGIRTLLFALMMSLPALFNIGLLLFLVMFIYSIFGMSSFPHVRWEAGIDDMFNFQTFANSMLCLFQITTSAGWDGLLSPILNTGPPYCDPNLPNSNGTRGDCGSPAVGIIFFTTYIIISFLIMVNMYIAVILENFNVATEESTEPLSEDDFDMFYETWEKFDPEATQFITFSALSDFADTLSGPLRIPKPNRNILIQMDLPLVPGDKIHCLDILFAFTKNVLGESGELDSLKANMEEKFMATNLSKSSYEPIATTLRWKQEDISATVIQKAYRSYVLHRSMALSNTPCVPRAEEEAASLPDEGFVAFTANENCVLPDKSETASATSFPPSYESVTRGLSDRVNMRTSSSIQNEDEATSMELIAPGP

| Structure (SMILES) | IC50 [nM] |
| --- | --- |
| O=C1NC[C@@H](C(=O)NC(c2ccc(F)c(Cl)c2)c2ccn(C(F)F)n2)O1 (single isomer, unassigned) [Example 60A, (S)-N-((R or S)-(3-chloro-4-fluorophenyl)(1-(difluoromethyl)-1H-pyrazol-3-yl)methyl)-2-oxooxazolidine-5-carboxamide] | 231 |
| O=C1NC[C@@H](C(=O)NC(c2ccc(Cl)cc2)c2ccc(OCC(F)(F)F)nn2)O1 (single isomer, unassigned) [Example 73B, (S)-N-((R or S)-(4-chlorophenyl)(6-(2,2,2-trifluoroethoxy)pyridazin-3-yl)methyl)-2-oxooxazolidine-5-carboxamide] | 80 |
| O=C1NC[C@@H](C(=O)NC(c2ccc(Cl)cc2)c2ccnc(C(F)(F)F)n2)O1 (single isomer, unassigned) [Example 11A, (S)-N-((R or S)-(4-chlorophenyl)(2-(trifluoromethyl)pyrimidin-4-yl)methyl)-2-oxooxazolidine-5-carboxamide] | 23 |
| O=C1NC[C@@H](C(=O)NC(c2ccc(F)c(Cl)c2)C2CCN(CC(F)(F)F)C2)O1 (single isomer, unassigned) [Example 43A, (S)-N-((R or S)-(3-chloro-4-fluorophenyl)((R or S)-1-(2,2,2-trifluoroethyl)pyrrolidin-3-yl)methyl)-2-oxooxazolidine-5-carboxamide] | 1760 |
| O=C1NC[C@@H](C(=O)NC(c2ccc(Cl)cc2)c2ccc(Cl)cc2OC(F)(F)F)O1 (single isomer, unassigned) [Example 47A, (S)-N-((R or S)-(4-chloro-2-(trifluoromethoxy)phenyl)(4-chlorophenyl)methyl)-2-oxooxazolidine-5-carboxamide] | 1.6 |
| O=C1NC[C@@H](C(=O)NC(c2ccc(Cl)cc2)C2CCC(F)(F)C2)O1 (single isomer, unassigned) [Example 57B, (S)-N-((R or S)-(4-chlorophenyl)((R or S)-3,3-difluorocyclopentyl)methyl)-2-oxooxazolidine-5-carboxamide] | 5720 |
| O=C1NC[C@@H](C(=O)NC(c2ccc(F)c(Cl)c2F)[C@H]2C[C@H](C(F)(F)F)C2)O1 (single isomer, unassigned) [Example 70, (S)—N—((R or S)-(3-chloro-2,4-difluorophenyl)((trans)-3-(trifluoromethyl)cyclobutyl)methyl)-2-oxooxazolidine-5-carboxamide] | 5.4 |
| O=C1NC[C@@H](C(=O)NC(c2ccc(OC(F)F)cc2)c2ccc(F)c(Cl)c2)O1 (single isomer, unassigned) [Example 48A, (S)-N-((R or S)-(3-chloro-4-fluorophenyl)(4-(difluoromethoxy)phenyl)methyl)-2-oxooxazolidine-5-carboxamide] | 2.7 |
| O=C1NC[C@@H](C(=O)NC(c2ccc(Cl)cc2)C23C4C5C6C4C2C6C53)O1 (single isomer, unassigned) [Example 56A, (S)—N—((R or S)-(4-chlorophenyl)(cuban-1-yl)methyl)-2-oxooxazolidine-5-carboxamide] | 229 |
| Cn1nc(C(NC(=O)[C@@H]2CNC(=O)O2)c2ccc(F)c(Cl)c2)cc1C(F)(F)F (single isomer, unassigned) [Example 62B, (S)-N-((R or S)-(3-chloro-4-fluorophenyl)(1-methyl-5-(trifluoromethyl)-1H-pyrazol-3-yl)methyl)-2-oxooxazolidine-5-carboxamide] | 11 |
| CC1(C(=O)NC(c2ccc(Cl)cc2)c2ccc(Cl)cc2)CNC(=O)O1 (single isomer, unassigned) [Example 7B, (R or S)—N-(bis(4-chlorophenyl)methyl)-5-methyl-2-oxooxazolidine-5-carboxamide] | 2030 |
| O=C1NC[C@@H](C(=O)NC(c2cccc(Cl)c2)C2CC2c2ccccc2)O1 (single isomer, unassigned) [Example 26A, (5S)-N-((R or S)-(3-chlorophenyl) ((cis or trans)-2-phenylcyclopropyl)methyl)-2-oxooxazolidine-5-carboxamide] | 326 |
| COc1ccc(Cl)cc1C(NC(=O)[C@@H]1CNC(=O)O1)c1cccc(Cl)c1 (single isomer, unassigned) [Example 28A, (S)-N-((R or S)-(5-chloro-2-methoxyphenyl)(3-chlorophenyl)methyl)-2-oxooxazolidine-5-carboxamide] | 21 |
| O=C1NC[C@@H](C(=O)NC(c2ccc(F)c(Cl)c2)c2cccc(C(F)(F)F)n2)O1 (single isomer, unassigned) [Example 49B, (S)-N-((R or S)-(3-chloro-4-fluorophenyl)(6-(trifluoromethyl)pyridin-2-yl)methyl)-2-oxooxazolidine-5-carboxamide] | 54 |
| O=C1NC[C@@H](C(=O)NC(c2ccc(OCC(F)(F)F)nc2)c2ccc(F)c(Cl)c2F)O1 (single isomer, unassigned) [Example 50A, (S)—N—((R or S)-(3-chloro-2,4-difluorophenyl)(6-(2,2,2-trifluoroethoxy)pyridin-3-yl)methyl)-2-oxo-oxazolidine-5-carboxamide] | 1.6 |
| O=C1NC[C@@H](C(=O)NC(c2ccc(OCC(F)(F)F)nc2)c2ccc(F)c(Cl)c2F)O1 (single isomer, unassigned) [Example 50B, (S)—N—((R or S)-(3-chloro-2,4-difluorophenyl)(6-(2,2,2-trifluoroethoxy)pyridin-3-yl)methyl)-2-oxooxazolidine-5-carboxamide] | 48 |
| O=C1NC[C@@H](C(=O)NC(c2ccc(F)c(Cl)c2)c2csc(C(F)(F)F)n2)O1 (single isomer, unassigned) [Example 44B, (S)—N—((R or S)-(3-chloro-4-fluorophenyl)(2-(trifluoro-methyl)thiazol-4-yl)methyl)-2-oxooxazolidine-5-carboxamide] | 17 |
| O=C1NC[C@@H](C(=O)NC(c2ccc(Cl)cc2)c2ccc(F)cn2)O1 (single isomer, unassigned) [Example 23B, (S)-N-((R or S)-(4-chlorophenyl)(5-fluoropyridin-2-yl)methyl)-2-oxooxazolidine-5-carboxamide] | 233 |
| O=C1NC[C@@H](C(=O)NC(c2ccc(Cl)cc2)c2ccc(F)c(Cl)c2)O1 (single isomer, unassigned) [Example 19B, (S)—N—((R or S)-(3-chloro-4-fluorophenyl)(4-chlorophenyl)methyl)-2-oxooxazolidine-5-carboxamide] | 2.4 |
| COc1cc(Cl)ccc1C(NC(=O)[C@@H]1CNC(=O)O1)c1ccc(F)cc1 (single isomer, unassigned) [Example 55A, (S)—N—((R or S)-(4-chloro-2-methoxyphenyl)(4-fluorophenyl)-methyl)-2-oxooxazolidine-5-carboxamide] | 19 |
| CC1NC(=O)OC1C(=O)NC(c1ccc(Cl)cc1)c1ccc(Cl)cc1 (single isomer, unassigned) [Example 6B, (cis or trans)-N-(bis(4-chlorophenyl)methyl)-4-methyl-2-oxooxazolidine-5-carboxamide] | 1520 |
| O=C1NC[C@@H](C(=O)NC(c2ccc(Cl)cc2)c2nc(C(F)(F)F)c[nH]2)O1 (stereo partly drawn) [Example 40, (5S)-N-((4-chlorophenyl)(4-(trifluoromethyl)-1H-imidazol-2-yl)methyl)-2-oxooxazolidine-5-carboxamide] | 397 |
| O=C1NC[C@@H](C(=O)NC(c2cncc(Cl)c2)c2ccc(F)c(Cl)c2)O1 (single isomer, unassigned) [Example 13B, (S)-N-((R or S)-(3-chloro-4-fluorophenyl)(5-chloropyridin-3-yl)methyl)-2-oxooxazolidine-5-carboxamide] | 190 |
| O=C1NC[C@@H](C(=O)NC(c2ccc(Cl)cc2)C2CCC(F)(F)C2)O1 (single isomer, unassigned) [Example 57D, (S)-N-((R or S)-(4-chlorophenyl)((R or S)-3,3-difluorocyclopentyl)methyl)-2-oxooxazolidine-5-carboxamide] | 1160 |
| O=C1NC[C@@H](C(=O)NC(c2ccc(F)c(Cl)c2)c2cnn(CC(F)(F)F)c2)O1 (single isomer, unassigned) [Example 59B, (S)-N-((R or S)-(3-chloro-4-fluorophenyl)(1-(2,2,2-trifluoroethyl)-1H-pyrazol-4-yl)methyl)-2-oxooxazolidine-5-carboxamide] | 693 |
| O=C1NC[C@@H](C(=O)NC(c2ccc(Cl)cc2)c2ccc(Cl)c(C(F)(F)F)c2)O1 (single isomer, unassigned) [Example 35B, (S)-N-((R or S)-(4-chloro-3-(trifluoromethyl)phenyl)(4-chlorophenyl)methyl)-2-oxooxazolidine-5-carboxamide] | 3.8 |
| O=C1NC[C@@H](C(=O)NC(c2ccc(F)c(Cl)c2)c2ccc(F)c(OCC(F)(F)F)n2)O1 (single isomer, unassigned) [Example 1B, (S)—N—((R or S)-(3-chloro-4-fluorophenyl)(5-fluoro-6-(2,2,2-trifluoroethoxy)pyridin-2-yl)methyl)-2-oxo-oxazolidine-5-carboxamide] | 4 |
| O=C1NC[C@@H](C(=O)NC(c2ccc(F)c(Cl)c2)C2CCN(CC(F)(F)F)C2)O1 (single isomer, unassigned) [Example 43B, (S)-N-((R or S)-(3-chloro-4-fluorophenyl)((R or S)-1-(2,2,2-trifluoroethyl)pyrrolidin-3-yl)methyl)-2-oxooxazolidine-5-carboxamide] | 807 |
| O=C1NC[C@@H](C(=O)NC(c2ccc(Cl)cc2)c2ccc(F)cn2)O1 (single isomer, unassigned) [Example 23A, (S)-N-((R or S)-(4-chlorophenyl)(5-fluoropyridin-2-yl)methyl)-2-oxooxazolidine-5-carboxamide] | 1350 |
| CC(C)c1cccc(C(NC(=O)[C@@H]2CNC(=O)O2)c2ccc(Cl)cc2)c1 (single isomer, unassigned) [Example 32B, (S)-N-((R or S)-(4-chlorophenyl)(3-isopropylphenyl)methyl)-2-oxooxazolidine-5-carboxamide] | 12 |
